PubChem BioAssay AID248 (DTP/NCI, 2004)
Where “and” joins values, the source holds several entries; their conditions need not be identical. Equal values may be shown once. Inconclusive results and toxic doses are left out. No stated cut-off is given here; in the data, active means T/C of 150% or more; inactive means T/C below 125%.

Tested on: L1210 leukemia ip in BDF1 mice, survival T/C
Assay: NCI In Vivo Anticancer Drug Screen. Data for tumor model L1210 Leukemia (intraperitoneal) in B6D2F1 (BDF1) mice
Settings: endpoint: mean survival time, higher = longer survival
Method in brief: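 Value reflects the ratio of survival in compound-treated mice to survival in vehicle-treated controls, with both groups carrying the same transplanted tumor.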

[1] = dose: 100.0 mg/kg/injection, schedule: Q04DX003 (ip), vehicle: Klucel (hydroxypropylcellulose) (HPC)
[2] = dose: 200.0 mg/kg/injection, schedule: Q04DX003 (ip), vehicle: Klucel (hydroxypropylcellulose) (HPC)
[3] = dose: 100.0 mg/kg/injection, schedule: Q01DX009 (ip), vehicle: Klucel (hydroxypropylcellulose) (HPC)
[4] = dose: 200.0 mg/kg/injection, schedule: Q01DX009 (ip), vehicle: Klucel (hydroxypropylcellulose) (HPC)
[5] = dose: 400.0 mg/kg/injection, schedule: Q01DX009 (ip), vehicle: Klucel (hydroxypropylcellulose) (HPC)
[6] = dose: 100.0 mg/kg/injection, schedule: Q04DX003 (ip), vehicle: saline with Tween-80
[7] = dose: 200.0 mg/kg/injection, schedule: Q04DX003 (ip), vehicle: saline with Tween-80
[8] = dose: 12.5 mg/kg/injection, schedule: Q01DX009 (ip), vehicle: Klucel (hydroxypropylcellulose) (HPC)
[9] = dose: 25.0 mg/kg/injection, schedule: Q01DX009 (ip), vehicle: Klucel (hydroxypropylcellulose) (HPC)
[10] = dose: 25.0 mg/kg/injection, schedule: Q04DX003 (ip), vehicle: Klucel (hydroxypropylcellulose) (HPC)
[11] = dose: 50.0 mg/kg/injection, schedule: Q04DX003 (ip), vehicle: Klucel (hydroxypropylcellulose) (HPC)
[12] = dose: 6.25 mg/kg/injection, schedule: Q01DX009 (ip), vehicle: Klucel (hydroxypropylcellulose) (HPC)
[13] = dose: 400.0 mg/kg/injection, schedule: Q04DX003 (ip), vehicle: Klucel (hydroxypropylcellulose) (HPC)

Measured: T/C

O=CNNc1ccccc1
inactive: dose: 75.0 mg/kg/injection, schedule: Q01DX001 (ip), vehicle: acetone 98 % of control | [1] 106 % of control | dose: 150.0 mg/kg/injection, schedule: Q01DX001 (ip), vehicle: acetone 100 % of control | [2] 95 % of control | dose: 300.0 mg/kg/injection, schedule: Q01DX001 (ip), vehicle: acetone 96 % of control

CC(O)C(NCNC(=O)C1=C(O)C2(O)C(=O)C3=C(O)c4c(O)cccc4C(C)(O)C3CC2C(N(C)C)C1=O)C(=O)O (stereo not given)
inactive: dose: 1.0 mg/kg/injection, schedule: Q01DX Z (ip), vehicle: saline 110 % of control | dose: 4.0 mg/kg/injection, schedule: Q01DX Z (ip), vehicle: saline 100 % of control | dose: 14.0 mg/kg/injection, schedule: Q01DX Z (ip), vehicle: saline 91 % of control | dose: 15.0 mg/kg/injection, schedule: Q01DX Z (ip), vehicle: saline 96 % of control | dose: 28.0 mg/kg/injection, schedule: Q01DX Z (ip), vehicle: saline 102 % of control | dose: 56.0 mg/kg/injection, schedule: Q01DX Z (ip), vehicle: saline 91 % of control | dose: 60.0 mg/kg/injection, schedule: Q01DX Z (ip), vehicle: saline 98 % of control | dose: 100.0 mg/kg/injection, schedule: Q04DX003 (ip), vehicle: saline 98 % of control | dose: 120.0 mg/kg/injection, schedule: Q01DX Z (ip), vehicle: saline 93 % of control | dose: 200.0 mg/kg/injection, schedule: Q04DX003 (ip), vehicle: saline 100 % of control | dose: 224.0 mg/kg/injection, schedule: Q01DX Z (ip), vehicle: saline 91 % of control | dose: 240.0 mg/kg/injection, schedule: Q01DX Z (ip), vehicle: saline 95 % of control and 98 % of control | dose: 400.0 mg/kg/injection, schedule: Q04DX003 (ip), vehicle: saline 109 % of control | dose: 448.0 mg/kg/injection, schedule: Q01DX Z (ip), vehicle: saline 93 % of control | dose: 480.0 mg/kg/injection, schedule: Q01DX Z (ip), vehicle: saline 107 % of control

CCCCCCNP(=O)(OCC)OCC
inactive: dose: 50.0 mg/kg/injection, schedule: Q01DX001 (ip), vehicle: carboxymethylcellulose (CMC) 95 % of control | dose: 100.0 mg/kg/injection, schedule: Q01DX001 (ip), vehicle: carboxymethylcellulose (CMC) 93 % of control | dose: 200.0 mg/kg/injection, schedule: Q01DX001 (ip), vehicle: carboxymethylcellulose (CMC) 101 % of control

CCCS(=O)(=O)N1CCC(C)CC1
inactive: dose: 100.0 mg/kg/injection, schedule: Q04DX002 (ip), vehicle: Klucel (hydroxypropylcellulose) (HPC) 102 % of control | dose: 200.0 mg/kg/injection, schedule: Q04DX002 (ip), vehicle: Klucel (hydroxypropylcellulose) (HPC) 97 % of control | dose: 400.0 mg/kg/injection, schedule: Q04DX002 (ip), vehicle: Klucel (hydroxypropylcellulose) (HPC) 97 % of control

CN(CC(C)(C)C=O)CC(C)(C)C=O
inactive: dose: 100.0 mg/kg/injection, schedule: Q04DX002 (ip), vehicle: saline 112 % of control | dose: 200.0 mg/kg/injection, schedule: Q04DX002 (ip), vehicle: saline 101 % of control | dose: 400.0 mg/kg/injection, schedule: Q04DX002 (ip), vehicle: saline 108 % of control

CC(CO)(NC(=O)OCc1ccccc1)C(=O)O (stereo not given)
inactive: dose: 100.0 mg/kg/injection, schedule: Q01DX009 (ip), vehicle: acetone 94 % of control | dose: 200.0 mg/kg/injection, schedule: Q01DX009 (ip), vehicle: acetone 92 % of control | dose: 400.0 mg/kg/injection, schedule: Q01DX009 (ip), vehicle: acetone 92 % of control

CC(=O)c1cccc(N=Cc2ccc(Cl)cc2Cl)c1
inactive: [3] 95 % of control | [4] 93 % of control | [5] 93 % of control

Cc1ccc(S(=O)(=O)N(CC2OCC3OC(C)(C)OC23)N=O)cc1 (stereo not given)
inactive: dose: 75.0 mg/kg/injection, schedule: Q01DX001 (ip), vehicle: saline 100 % of control | dose: 150.0 mg/kg/injection, schedule: Q01DX001 (ip), vehicle: saline 98 % of control | dose: 300.0 mg/kg/injection, schedule: Q01DX001 (ip), vehicle: saline 98 % of control

O=C(O)c1ccc(CBr)c(CBr)c1
inactive: dose: 6.25 mg/kg/injection, schedule: Q04DX003 (ip), vehicle: saline with Tween-80 93 % of control | dose: 12.5 mg/kg/injection, schedule: Q04DX003 (ip), vehicle: saline with Tween-80 94 % of control

CC(C)CCC(C)O[Si](C)c1ccccc1 (stereo not given)
inactive: [6] 97 % of control | [7] 99 % of control | dose: 400.0 mg/kg/injection, schedule: Q04DX003 (ip), vehicle: saline with Tween-80 101 % of control

Cc1ccc(NC(=O)Oc2ccc(C(C)(C)C)cc2)cc1NC(=O)Oc1ccc(C(C)(C)C)cc1
inactive: [3] 97 % of control | [4] 105 % of control | [5] 100 % of control

O=C(/C=C/c1cccc([N+](=O)[O-])c1)c1cccc([N+](=O)[O-])c1
inactive: [8] 94 % of control | [9] 92 % of control | [10] 94 % of control | dose: 50.0 mg/kg/injection, schedule: Q01DX009 (ip), vehicle: Klucel (hydroxypropylcellulose) (HPC) 87 % of control | [11] 103 % of control

O=C1SC(c2ccccc2)(c2ccccc2)c2cscc21
inactive: dose: 50.0 mg/kg/injection, schedule: Q01DX009 (ip), vehicle: saline with Tween-80 86 % of control | dose: 100.0 mg/kg/injection, schedule: Q01DX009 (ip), vehicle: saline with Tween-80 86 % of control

COc1ccccc1C(=O)C=C(C(F)(F)F)C(F)(F)F
inactive: [6] 95 % of control | [7] 97 % of control

CC(=O)Oc1c(OC(C)=O)c(C=O)c2c(OC(C)=O)c(-c3c(C)cc4c(C(C)C)c(OC(C)=O)c(OC(C)=O)c(C=O)c4c3OC(C)=O)c(C)cc2c1C(C)C
inactive: [12] 102 % of control | [8] 97 % of control | [9] 100 % of control and 105 % of control | [10] 93 % of control | [11] 90 % of control | [1] 95 % of control and 104 % of control

CN(C)C(=S)Oc1ccc(O)cc1
inactive: dose: 100.0 mg/kg/injection, schedule: Q01DX001 (ip), vehicle: saline with Tween-80 102 % of control | dose: 200.0 mg/kg/injection, schedule: Q01DX001 (ip), vehicle: saline with Tween-80 97 % of control | dose: 400.0 mg/kg/injection, schedule: Q01DX001 (ip), vehicle: saline with Tween-80 100 % of control

C[Si](C)(C)c1c(F)c(F)cc(F)c1F
inactive: [3] 98 % of control | [1] 98 % of control | [4] 112 % of control | [2] 95 % of control | [5] 94 % of control | [13] 97 % of control

COC(=O)[C@H]1[C@H]2C[C@@H]3c4[nH]c5cc(OC)ccc5c4CCN3C[C@H]2C[C@@H](OC(=O)c2cccc(N(C)C)c2)[C@@H]1OC
inactive: dose: 0.78 mg/kg/injection, schedule: Q01DX009 (ip), vehicle: Klucel (hydroxypropylcellulose) (HPC) 102 % of control | dose: 0.78 mg/kg/injection, schedule: Q04DX003 (ip), vehicle: Klucel (hydroxypropylcellulose) (HPC) 94 % of control | dose: 1.56 mg/kg/injection, schedule: Q01DX009 (ip), vehicle: Klucel (hydroxypropylcellulose) (HPC) 102 % of control | dose: 1.56 mg/kg/injection, schedule: Q04DX003 (ip), vehicle: Klucel (hydroxypropylcellulose) (HPC) 107 % of control | dose: 3.12 mg/kg/injection, schedule: Q01DX009 (ip), vehicle: Klucel (hydroxypropylcellulose) (HPC) 96 % of control | dose: 3.12 mg/kg/injection, schedule: Q04DX003 (ip), vehicle: Klucel (hydroxypropylcellulose) (HPC) 104 % of control | [12] 93 % of control | dose: 6.25 mg/kg/injection, schedule: Q04DX003 (ip), vehicle: Klucel (hydroxypropylcellulose) (HPC) 104 % of control | dose: 12.5 mg/kg/injection, schedule: Q04DX003 (ip), vehicle: Klucel (hydroxypropylcellulose) (HPC) 100 % of control

CCCCCCCCCCCCCCOc1ccc(C(=S)N2CCOCC2)cc1OC
inactive: [1] 100 % of control | [2] 100 % of control | [13] 94 % of control

O=C(O)C1CCCCN1[N+](=O)[O-] (stereo not given)
inactive: dose: 100.0 mg/kg/injection, schedule: Q01DX001 (ip), vehicle: saline 96 % of control | dose: 200.0 mg/kg/injection, schedule: Q01DX001 (ip), vehicle: saline 100 % of control | dose: 400.0 mg/kg/injection, schedule: Q01DX001 (ip), vehicle: saline 100 % of control
